Data set [1] can be described thus: Biosafety (cytotoxicity) evaluation on H9c2 cells (MTT). It counts as cell-based, rat. To be noted: rat, H9c2 cells; H9c2, 50 μM, MTT; read-out: cell viability. How it is done:
(§1) Compounds DG-13 and DG-15 dissolved in DMSO were added to each well with required concentrations (3.125, 6.25, 12.5, 25, 50 µM). Then the control group were treated with the same volume of medium. The non-administered group were not treated (no cells and no medium). Then the sterile plates were further incubated for 4 h, following MTT addition. After 4 h, supernatant liquor was removed into the waste and all of the wells were then placed into the fresh DMSO (0.15 mL). The absorbance was measured using BIORAD 550 spectrophotometer with the emission wavelengths of 490 nm. Each data was measured three times in parallel survival fraction of cells, calculated by the equation: [OD490 (Drug group) − OD490 (non-administered group)]/[OD490 (Control group) − OD490 (non-administered group)] ×100%.

Data set [2] deals with H9c2 cells. The data set is described as above. Format: cell-based, rat. As to conditions: for cytotoxicity (in words): H9c2, 3.125-50 μM. How it is done: as §1
Data set [3] deals with SH-SY5Y cells. To be noted: for EC50: read-out: EC50 (neuroprotection), SH-SY5Y damaged by TBHP, 24 h, MTT, n = 3.
The subject of data set [4] is SH-SY5Y cells. Briefly: Morphological observation of TBHP-damaged SH-SY5Y cells by Giemsa and DAPI staining. To be noted: TBHP-damaged SH-SY5Y, 10, 20, 40 μM. Format: cell-based, human. How it is done: Afterwards, the medium containing compound DG-15 were added to the cultures for 24 h and the concentration range of the examined compounds was 10, 20 and 40 µM. Then 0.1 mL TBHP was used to damage cells and the plate was cultured for further 24 h. Removing the culture medium, washing twice with PBS and fixing cells with 2 mL methanol for 2 min and 1 mL paraformaldehyde for 15 min respectively and washed with fresh PBS again. Giemsa solution or DAPI was added to stain the fixed cells for 2 min and protected from light. Finally, the cells ware washed with water and were observed under inverted fluorescent microscope.

For data set [5], the system named is chorioallantoic membrane. Briefly: Angiogenesis in chorioallantoic membrane (CAM) model. Format: in vivo, chicken. To be noted: new vessels inner diameter < 100 μm. How it is done:
The CAM was examined as a predictive model for the angiogenic activity studies of compounds DG-15. The wide end of the fresh fertilized egg was placed upward in an incubator at 37 °C with a relative humidity of 60%. All the eggs were turned every two hours to prevent from sticking to each other. Compound DG-15 was dissolved with acetone at a concentration of 1 mg/mL and 4 mg/mL and then 5 µL solution was transferred to gelatin sponge using a pipette respectively. The sham treatment group was added to the same volume of saline. Disinfected with UV lamp for 30 min. After 7 days, the broader said of eggs was disinfected with 70% alcohol, then a 30-mm-diameter window was carefully opened in the shell to reduce the chamber pressure before removed the upper shell membrane with tweezers. In addition, the non-fertilized oocytes and unhealthy developed embryos were thrown away. Then the gelatin sponge was embedded into the allantoic membrane and the window was sealed with adhesive tape, with the eggs being returned to the incubator. The eggs were then incubated 3 days after administration, fixed with methanol-acetone (1:1) for 10 min and repeated four times. […] The vascular growth was analyzed with a dissecting microscope and counted by software of Image Professional Plus 5.0 software (Media Cybernetics, Inc, MD, USA)

Several values for one entry are separate records, joined by “and”; a condition that tells them apart may be missing. Identical values can stand only once. Like-named read-outs stand apart in the source and are kept apart here.

One may read the viability as the share of living cells, or the viability signal relative to a control. Broadly, the EC50 is the concentration needed to bring the measured effect to its halfway point. As for `C[C@@H]1CC[C@@]2(OC1)O[C@H]1C[C@H]3[C@@H]4CC=C5C[C@@H](O)CC[C@]5(C)[C@H]4CC[C@]3(C)[C@H]1[C@@H]2C` [DG, diosgenin], in data set [1], the viability at 50 µM was roughly 60%. In addition, the “cytotoxicity (in words)” value in data set [2] (MTT) is listed as “toxic under all treated groups”. Moreover, the EC50 in data set [3] was greater than 50 µM; in data set [3] (listed as diosgenin), greater than 40 µM.

One may read the melting point as the temperature of the solid-liquid transition. Regarding `CC1CCC2(OC1)OC1CC3C4CC=C5CC(OC(=O)CNC(=O)OC(C)(C)C)CCC5(C)C4CCC3(C)C1C2C` (stereo not drawn) [DG-1, 3β-(N-Boc-glycine)-diosgenin], the melting point amounted to 218.7 °C. In data set [3], the EC50 is greater than 50 µM.

In turn, `CC1CCC2(OC1)OC1CC3C4CC=C5CC(OC(=O)C(C)NC(=O)OC(C)(C)C)CCC5(C)C4CCC3(C)C1C2C` [DG-2, 3β-(N-Boc-L-alanine)-diosgenin] had a melting point of 218.9 °C.

Consider `CC1CCC2(OC1)OC1CC3C4CC=C5CC(OC(=O)CN(C)C(=O)OC(C)(C)C)CCC5(C)C4CCC3(C)C1C2C` (stereo not drawn) [DG-3, 3β-(N-Boc-sarcosine)-diosgenin], for which the EC50 in data set [3] came to 15.2 ± 0.96 µM.

In the case of `CC1CCC2(OC1)OC1CC3C4CC=C5CC(OC(=O)C6CCCN6C(=O)OC(C)(C)C)CCC5(C)C4CCC3(C)C1C2C` [DG-4, 3β-(N-Boc-L-proline)-diosgenin], the melting point stood at 183.4 °C. The 50% effective concentration (EC50) in data set [3] was determined as 23.8 ± 6.83 µM.

Turning to `CC(C)CC(NC(=O)OC(C)(C)C)C(=O)OC1CCC2(C)C(=CCC3C2CCC2(C)C3CC3OC4(CCC(C)CO4)C(C)C32)C1` [DG-5, 3β-(N-Boc-L-leucine)-diosgenin], the EC50 in data set [3] was 9.51 ± 1.79 µM.

With `CCC(C)C(NC(=O)OC(C)(C)C)C(=O)OC1CCC2(C)C(=CCC3C2CCC2(C)C3CC3OC4(CCC(C)CO4)C(C)C32)C1` [DG-6, 3β-(N-Boc-L-isoleucine)-diosgenin], the EC50 in data set [3] was determined as 18.5 ± 1.87 µM.

In turn, `CC1CCC2(OC1)OC1CC3C4CC=C5CC(OC(=O)C(Cc6ccccc6)NC(=O)OC(C)(C)C)CCC5(C)C4CCC3(C)C1C2C` [DG-7, 3β-(N-Boc-L-phenylalanine)-diosgenin] came in with a melting point of 163.4 °C. Moreover, in data set [3], the EC50 is greater than 50 µM.

Turning to `CC1CCC2(OC1)OC1CC3C4CC=C5CC(OC(=O)C(NC(=O)OCc6ccccc6)C(C)C)CCC5(C)C4CCC3(C)C1C2C` [DG-8, 3β-(N-Cbz-L-valine)-diosgenin], the melting point is 158.4 °C. The EC50 in data set [3] was found to be 38.1 ± 6.68 µM.

As to `CC1CCC2(OC1)OC1CC3C4CC=C5CC(OC(=O)C(CCCCNC(=O)OCc6ccccc6)NC(=O)OCc6ccccc6)CCC5(C)C4CCC3(C)C1C2C` [DG-9, 3β-(N-Cbz-L-lysine)-diosgenin], the melting point came out at 135.8 °C. Further, in data set [3], the 50% effective concentration (EC50) was 36.2 ± 8.67 µM.

`CC1CCC2(OC1)OC1CC3C4CC=C5CC(OC(=O)CN)CCC5(C)C4CCC3(C)C1C2C` (stereo not drawn) [DG-10, 3β-(glycine)-diosgenin] had a melting point of 110.8 °C. Moreover, in data set [3], the EC50 was greater than 50 µM.

Consider `CC1CCC2(OC1)OC1CC3C4CC=C5CC(OC(=O)C(C)N)CCC5(C)C4CCC3(C)C1C2C` [DG-11, 3β-(L-alanine)-diosgenin], for which the melting point amounted to 219.1 °C. Moreover, in data set [3], the EC50 is greater than 50 µM.

`CNCC(=O)OC1CCC2(C)C(=CCC3C2CCC2(C)C3CC3OC4(CCC(C)CO4)C(C)C32)C1` (stereo not drawn) [DG-12, 3β-(sarcosine)-diosgenin] returned a melting point of 176 °C. Moreover, the EC50 in data set [3] is greater than 50 µM.

As to `CC1CCC2(OC1)OC1CC3C4CC=C5CC(OC(=O)C6CCCN6)CCC5(C)C4CCC3(C)C1C2C` [DG-13, 3β-(L-proline)-diosgenin], the survival rate in data set [2] (H9c2, 25 μM, MTT) turned out to be 12%. For the same compound, the “cytotoxicity (in words)” value in data set [2] (MTT) is given as “significantly enhanced compared with diosgenin”. Besides, the EC50 in data set [3] is 7.22 ± 1.58 µM.

On to `CC(C)CC(N)C(=O)OC1CCC2(C)C(=CCC3C2CCC2(C)C3CC3OC4(CCC(C)CO4)C(C)C32)C1` [DG-14, 3β-(L-leucine)-diosgenin], for which the melting point was 154.4 °C. Besides, the concentration for a half-maximal effect (EC50) in data set [3] was 32.6 ± 0.97 µM.

Consider `CCC(C)C(N)C(=O)OC1CCC2(C)C(=CCC3C2CCC2(C)C3CC3OC4(CCC(C)CO4)C(C)C32)C1` [DG-15, 3β-(L-isoleucine)-diosgenin], for which the melting point came out at 147.1 °C. The “cytotoxicity (in words)” value in data set [2] (MTT) was “no cytotoxicity”. In data set [2] (H9c2, concentrations below 25 μM), the “inhibitory effect on cells” value is on record as “no inhibitory effect”. Moreover, in data set [4], the “morphological change, DAPI staining” value is reported as “the number of SH-SY5Y cells was increasingly larger” and the “morphological change, Giemsa staining” value is reported as “the typical signs for apoptosis were reduced”. The “increase of number of blood vessels” value in data set [5] (1 mg/mL on gelatin sponge) came out at 60.61%. In addition, the “increase of number of blood vessels” value in data set [5] (4 mg/mL on gelatin sponge) is listed as 80.30%. In data set [3], the EC50 turned out to be 6.86 ± 0.69 µM.

As to `CC1CCC2(OC1)OC1CC3C4CC=C5CC(OC(=O)C(N)Cc6ccccc6)CCC5(C)C4CCC3(C)C1C2C` [DG-16, 3β-(L-phenylalanine)-diosgenin], in data set [3], the EC50 was 11.4 µM and 11.2 µM.

Compound `CC1CCC2(OC1)OC1CC3C4CC=C5CC(OC(=O)C(N)C(C)C)CCC5(C)C4CCC3(C)C1C2C` [DG-17, 3β-(L-valine)-diosgenin] returned a melting point of 139.1 °C. The EC50 in data set [3] was greater than 50 µM.

`CC1CCC2(OC1)OC1CC3C4CC=C5CC(OC(=O)C(N)CCCCN)CCC5(C)C4CCC3(C)C1C2C` [DG-18, 3β-(L-lysine)-diosgenin] displayed a melting point of 189.4 °C. The “cytotoxicity seen in neuroprotective activity evaluation (in words)” value in data set [3] (SH-SY5Y, compared with compounds with neutral amino acids) is recorded as “higher cytotoxicity”. Besides, the EC50 in data set [3] is greater than 50 µM.

With `CC1=NN(c2ccccc2)C(=O)C1` [Edaravone, edaravone, reference compound], the EC50 in data set [3] worked out at 21.6 ± 3.04 µM.

The record behind these values is publication PMC6891328, “Design, Synthesis and Biological Evaluation of Diosgenin-Amino Acid Derivatives with Dual Functions of Neuroprotection and Angiogenesis” (Molecules, 2019).
